Results: PubChem BioAssay AID212 (DTP/NCI, 2004)
Where “and” joins values, the source holds several entries; their conditions need not be identical. Equal values may be shown once. Inconclusive results are not listed.

System: BDF1 mice, colon carcinoma 38 sc, T/C %
Assay: NCI In Vivo Anticancer Drug Screen. Data for tumor model Colon Carcinoma 38 (subcutaneous) in B6D2F1 (BDF1) mice
Settings: endpoint: median tumor weight (est.), higher = larger tumour
Experimental: The antitumor activity of compounds was measured in mice bearing transplantable tumors. Survival or tumor size were measured and the results are expressed as the measurement made in the treated group (T) divided by the measurement made in the vehicle treated control group (C). The tumor model used in this assay is Colon Carcinoma 38 (subcutaneous) in B6D2F1 (BDF1) mice

[1] = dose: 3.12 mg/kg/injection, schedule: Q07DX002 (ip), vehicle: saline with Tween-80
[2] = dose: 3.12 mg/kg/injection, schedule: Q07DX002 (ip), vehicle: saline
[3] = dose: 6.25 mg/kg/injection, schedule: Q07DX002 (ip), vehicle: saline with Tween-80
[4] = dose: 6.25 mg/kg/injection, schedule: Q07DX002 (ip), vehicle: saline
[5] = dose: 12.5 mg/kg/injection, schedule: Q07DX002 (ip), vehicle: saline
[6] = dose: 1.56 mg/kg/injection, schedule: Q07DX002 (ip), vehicle: Klucel (hydroxypropylcellulose) (HPC)
[7] = dose: 6.25 mg/kg/injection, schedule: Q07DX002 (ip), vehicle: Klucel (hydroxypropylcellulose) (HPC)
[8] = dose: 12.5 mg/kg/injection, schedule: Q07DX002 (ip), vehicle: Klucel (hydroxypropylcellulose) (HPC)
[9] = dose: 25.0 mg/kg/injection, schedule: Q07DX002 (ip), vehicle: Klucel (hydroxypropylcellulose) (HPC)
[10] = dose: 50.0 mg/kg/injection, schedule: Q07DX002 (ip), vehicle: Klucel (hydroxypropylcellulose) (HPC)
[11] = dose: 12.5 mg/kg/injection, schedule: Q07DX002 (ip), vehicle: saline with Tween-80
[12] = dose: 200.0 mg/kg/injection, schedule: Q07DX002 (ip), vehicle: Klucel (hydroxypropylcellulose) (HPC)
[13] = dose: 400.0 mg/kg/injection, schedule: Q07DX002 (ip), vehicle: Klucel (hydroxypropylcellulose) (HPC)

For `Cc1c(CNc2ccc(C(=O)NC(CC(=O)O)C(=O)O)cc2)ccc2nc(N)nc(N)c12` (centres undefined), the T/C (dose: 1.56 mg/kg/injection, schedule: Q07DX002 (ip), vehicle: saline with Tween-80) was 86 % of control, the T/C (dose: 1.56 mg/kg/injection, schedule: Q07DX002 (ip), vehicle: saline) was 122 % of control and the T/C [1] was 87 % of control. For the same compound, the T/C [2] was 96 % of control, the T/C [3] was 35 % of control and the T/C [4] was 48 % of control. For the same compound, the T/C [5] was 32 % of control.
For `Cc1c2ccc3ccccc3c2c[n+]2ccccc12`, the T/C (dose: 5.0 mg/kg/injection, schedule: Q07DX002 (ip), vehicle: Klucel (hydroxypropylcellulose) (HPC)) was 111 % of control and 87 % of control, the T/C (dose: 10.0 mg/kg/injection, schedule: Q07DX002 (ip), vehicle: Klucel (hydroxypropylcellulose) (HPC)) was 77 % of control and the T/C (dose: 40.0 mg/kg/injection, schedule: Q07DX002 (ip), vehicle: Klucel (hydroxypropylcellulose) (HPC)) was 89 % of control.
For `Brc1c(NC2=NCCN2)ccc2nccnc12`, the T/C [2] was 87 % of control, the T/C [4] was 98 % of control and the T/C [5] was 92 % of control. The T/C (dose: 25.0 mg/kg/injection, schedule: Q07DX002 (ip), vehicle: saline) was 82 % of control, the T/C (dose: 50.0 mg/kg/injection, schedule: Q07DX002 (ip), vehicle: saline) was 72 % of control and the T/C (dose: 100.0 mg/kg/injection, schedule: Q07DX002 (ip), vehicle: saline) was 75 % of control.
For `Cc1cc2c(c3oc(C4(C)OC4C4OC4C)cc(=O)c13)C(=O)c1c(O)c(C3CC(C)(N(C)C)C(O)C(C)O3)cc(C3CC(N(C)C)C(O)C(C)O3)c1C2=O` (centres undefined), the T/C (dose: 3.75 micrograms/kg/injection, schedule: Q07DX002 (ip), vehicle: Klucel (hydroxypropylcellulose) (HPC)) was 62 % of control, the T/C (dose: 7.5 micrograms/kg/injection, schedule: Q07DX002 (ip), vehicle: Klucel (hydroxypropylcellulose) (HPC)) was 90 % of control and the T/C (dose: 15.0 micrograms/kg/injection, schedule: Q07DX002 (ip), vehicle: Klucel (hydroxypropylcellulose) (HPC)) was 99 % of control. The T/C (dose: 30.0 micrograms/kg/injection, schedule: Q07DX002 (ip), vehicle: Klucel (hydroxypropylcellulose) (HPC)) was 57 % of control.
In the case of `[I][Hg][CH2]C1OCCOC1[CH2][Hg][I]` (centres undefined), the T/C [6] is reported as 93 % of control, the T/C (dose: 3.12 mg/kg/injection, schedule: Q07DX002 (ip), vehicle: Klucel (hydroxypropylcellulose) (HPC)) is reported as 101 % of control and the T/C [7] is reported as 92 % of control. For the same compound, the T/C [8] was 99 % of control and 106 % of control and the T/C [9] was 83 % of control and 91 % of control.
`COc1ccc2[nH]c3c(c2c1)CCNC3CC(C)CCC=C(C)C` (centres undefined) was tested, and the T/C [8] was 88 % of control and 97 % of control, the T/C [9] was 82 % of control and the T/C [10] was 57 % of control.
With `CCC[CH2][Sn]1([CH2]CCC)[O]C2C(CO)OC(n3ccc(N)nc3=O)C2[O]1` (centres undefined) the T/C [6] was 61 % of control and 72 % of control and the T/C [9] was 91 % of control.
`CCCCc1ccc2nc(NC(=O)OC)[nH]c2c1` was tested, and the T/C [11] was 114 % of control, the T/C (dose: 25.0 mg/kg/injection, schedule: Q07DX002 (ip), vehicle: saline with Tween-80) was 83 % of control and the T/C (dose: 50.0 mg/kg/injection, schedule: Q07DX002 (ip), vehicle: saline with Tween-80) was 98 % of control. For the same compound, the T/C (dose: 200.0 mg/kg/injection, schedule: Q07DX002 (ip), vehicle: saline with Tween-80) was 87 % of control.
For `O=c1cc(CCl)[nH]nc1CCl`, the T/C [1] was 119 % of control, the T/C [3] was 91 % of control and the T/C [11] was 93 % of control.
In the case of `O=C1N[C@H]2[C@H](CS[C@H]2CCCCC(=O)N(CCP(c2ccccc2)c2ccccc2)CCP(c2ccccc2)c2ccccc2)N1`, the T/C [10] is reported as 71 % of control, the T/C (dose: 100.0 mg/kg/injection, schedule: Q07DX002 (ip), vehicle: Klucel (hydroxypropylcellulose) (HPC)) is reported as 71 % of control and the T/C [12] is reported as 91 % of control. For the same compound, the T/C [13] was 96 % of control and the T/C (dose: 800.0 mg/kg/injection, schedule: Q07DX002 (ip), vehicle: Klucel (hydroxypropylcellulose) (HPC)) was 89 % of control.
For `CCCCCC(O)C1C(=O)OC(C)C(O)/C=C/C=C/C=C/C=C\C=C(\C)C(O)CC(O)CC(O)CC(O)CC(O)CC(O)CC1O` (centres undefined), the T/C (dose: 2.5 mg/kg/injection, schedule: Q07DX002 (ip), vehicle: saline) was 105 % of control, the T/C (dose: 5.0 mg/kg/injection, schedule: Q07DX002 (ip), vehicle: saline) was 64 % of control and the T/C (dose: 20.0 mg/kg/injection, schedule: Q07DX002 (ip), vehicle: saline) was 71 % of control.
In the case of `S=C(Nc1ccc(Cl)c(Cl)c1)N1c2ccccc2-n2cccc2C1c1cccnc1` (centres undefined), the T/C [10] is reported as 83 % of control, the T/C [12] is reported as 113 % of control and 95 % of control and the T/C [13] is reported as 101 % of control.
For `O=NN(CCCl)C(=O)Oc1ccc(OC(=O)N(CCCl)N=O)cc1`, the T/C [7] was 75 % of control, the T/C [8] was 72 % of control and the T/C [9] was 85 % of control. The T/C [10] was 54 % of control.
In the case of `CSc1cc(C)[o+]c(C)c1`, the T/C [9] is reported as 117 % of control, the T/C [10] is reported as 184 % of control and the T/C [12] is reported as 108 % of control.
In the case of `Nc1nc(=S)c2[nH]cnc2[nH]1`, the T/C (dose: 1.56 mg/kg/injection, schedule: Q07DX002 (ip), vehicle: alkali diluted with saline) is reported as 105 % of control, the T/C (dose: 2.0 mg/kg/injection, schedule: Q07DX002 (ip), vehicle: alkali diluted with saline) is reported as 63 % of control and the T/C (dose: 2.0 mg/kg/injection, schedule: Q07DX003 (ip), vehicle: alkali diluted with saline) is reported as 37 % of control and 46 % of control (2×). The T/C (dose: 2.0 mg/kg/injection, schedule: Q07DX003 (ip), vehicle: saline) was 52 % of control and 61 % of control, the T/C (dose: 3.13 mg/kg/injection, schedule: Q07DX002 (ip), vehicle: alkali diluted with saline) was 32 % of control and the T/C (dose: 4.0 mg/kg/injection, schedule: Q07DX002 (ip), vehicle: alkali diluted with saline) was 44 % of control. The T/C (dose: 4.0 mg/kg/injection, schedule: Q07DX002 (ip), vehicle: saline) was 54 % of control and 78 % of control, the T/C (dose: 4.0 mg/kg/injection, schedule: Q07DX003 (ip), vehicle: saline) was 27 % of control and 42 % of control and the T/C (dose: 6.25 mg/kg/injection, schedule: Q07DX002 (ip), vehicle: alkali diluted with saline) was 29 % of control. The T/C (dose: 8.0 mg/kg/injection, schedule: Q07DX002 (ip), vehicle: alkali diluted with saline) was 21 % of control, the T/C (dose: 8.0 mg/kg/injection, schedule: Q07DX002 (ip), vehicle: saline) was 26 % of control and 31 % of control and the T/C (dose: 8.0 mg/kg/injection, schedule: Q07DX003 (ip), vehicle: alkali diluted with saline) was 8 % of control and 11 % of control and 18 % of control. The T/C (dose: 8.0 mg/kg/injection, schedule: Q07DX003 (ip), vehicle: saline) was 13 % of control and 37 % of control, the T/C (dose: 12.5 mg/kg/injection, schedule: Q07DX002 (ip), vehicle: alkali diluted with saline) was 9 % of control and the T/C (dose: 16.0 mg/kg/injection, schedule: Q07DX002 (ip), vehicle: alkali diluted with saline) was 20 % of control. For the same compound, the T/C (dose: 16.0 mg/kg/injection, schedule: Q07DX002 (ip), vehicle: saline) was 17 % of control and 24 % of control, the T/C (dose: 16.0 mg/kg/injection, schedule: Q07DX003 (ip), vehicle: alkali diluted with saline) was 2 % of control and 8 % of control and the T/C (dose: 16.0 mg/kg/injection, schedule: Q07DX003 (ip), vehicle: saline) was 4 % of control and 15 % of control. The T/C (dose: 25.0 mg/kg/injection, schedule: Q07DX002 (ip), vehicle: alkali diluted with saline) was 18 % of control, the T/C (dose: 32.0 mg/kg/injection, schedule: Q07DX002 (ip), vehicle: alkali diluted with saline) was 14 % of control and the T/C (dose: 32.0 mg/kg/injection, schedule: Q07DX003 (ip), vehicle: alkali diluted with saline) was 2 % of control. The T/C (dose: 32.0 mg/kg/injection, schedule: Q07DX003 (ip), vehicle: saline) was 9 % of control and the T/C (dose: 50.0 mg/kg/injection, schedule: Q07DX002 (ip), vehicle: alkali diluted with saline) was 16 % of control.
`COc1ccc([I+]c2cccc(Cl)c2)cc1Cl` was tested, and the T/C (dose: 6.25 mg/kg/injection, schedule: Q07DX003 (ip), vehicle: saline with Tween-80) was 54 % of control, the T/C (dose: 12.5 mg/kg/injection, schedule: Q07DX003 (ip), vehicle: saline with Tween-80) was 78 % of control and the T/C (dose: 25.0 mg/kg/injection, schedule: Q07DX003 (ip), vehicle: saline with Tween-80) was 100 % of control. For the same compound, the T/C (dose: 50.0 mg/kg/injection, schedule: Q07DX003 (ip), vehicle: saline with Tween-80) was 111 % of control, the T/C (dose: 100.0 mg/kg/injection, schedule: Q07DX003 (ip), vehicle: saline with Tween-80) was 105 % of control and the T/C (dose: 200.0 mg/kg/injection, schedule: Q07DX003 (ip), vehicle: saline with Tween-80) was 72 % of control.
